From US10981896B2, “Indolinone derivatives as inhibitors of maternal embryonic leucine zipper kinase” (BOARD OF REGENTS, THE UNIVERSITY OF TEXAS SYSTEM, priority 2017, dated 2021)
Several values for one entry are separate records, joined by “and”; a condition that tells them apart may be missing. Equal entries are not always repeated.

Key:
AMPK = AMPK (Rattus norvegicus (Rat), UniProt P54645); experiment: Selectivity dose-response kinase assay, AMPK; assay type: biochemical; conditions: 100 μM ATP
Excerpt: (§1) CHK1 and NUAK1 were purchased from SignalChem (Vancouver, BC). The NUAK2, CHK, and SAMS peptides were purchased from BioSyn (Lewisville, Tex.). The sequence of CHK and NUAK2 peptides are described elsewhere (Sanchez Y, et al. Science (New York, N.Y.). 1997; 277(5331):1497-1501; Scott J W, et al. Sci Rep. 2015; 5:14436). ERK2, AMPK, CAMKK2, and Ets1 were produced in house as previously described (Waas W F, Dalby K N. The Journal of biological chemistry. 2002; 277(15):12532-12540; Neumann D, et al. Protein Expr Purif. 2003; 30(2):230-237; Waas W F, Dalby K N. Protein Expr Purif. 2001; 23(1):191-197). Apparent KM values for ATP under specific assay conditions were determined using respective experimental conditions in Table 8 with varied ATP (0-1.28 mM). All selectivity dose-response assays were performed in kinase assay buffer (see Inhibitor Library Screen) with 2 mM DTT and 100 μM γ-^32P-ATP with additional conditions listed in Table 8. IC50 and KM^ATP values were subsequently used to calculate Ki (Equation 4). Relative selectivity was determined by comparing Ki^Enzyme/Ki^MELK (termed φ in Table 7). […] Standard error from linear regression data was propagated internally in Prism and taken into account in nonlinear regression to determine IC50 or Ki.

HCC70 cells = experiment: Cell proliferation, CellTiter-Blue viability assay, HCC70; assay type: cell-based, human; conditions: 72 h after treatment
Excerpt: (§2) HCC70, BT-549, and SUM159 human TNBC cell lines and MCF10A human breast epithelial cell line were purchased from American Type Culture Collection. The murine 4T1-Luc TNBC cells were purchased from PerkinElmer. HCC70, BT-549, and 4T1-Luc cells were maintained in RPMI 1640 medium (Life Technologies Inc., Grand Island, N.Y., USA) and MDA-MB-231-LM2 cells in Dulbecco's modified Eagle's medium/F12 medium (Life Technologies Inc., Grand Island, N.Y., USA), both types of medium supplemented with FBS (10%) and antibiotic/antimycotic (1%). SUM159 cells were maintained in Ham's F-12 medium (Life Technologies Inc., Grand Island, N.Y., USA) supplemented with FBS (5%), antibiotic/antimycotic (1%), insulin (5 μg/mL), and hydrocortisone (1 μg/mL). MCF10A cells were maintained in Dulbecco's modified Eagle's medium/F12 medium supplemented with horse serum (10%), antibiotic/antimycotic (1%), insulin (10 μg/mL), EGF (20 ng/mL), cholera toxin (100 ng/mL), and hydrocortisone (500 μg/mL). […]
(§3) Cell proliferation was determined using the CellTiter-Blue viability assay as described previously (Gloeckner H, et al. Journal of immunological methods. 2001; 252(1-2):131-138). […] At 72 h after MELK inhibitor treatment, optical density at 595 nm was determined.

MCF10A cells = experiment: Cell proliferation, CellTiter-Blue viability assay, MCF10A; assay type: cell-based, human; conditions: 72 h after treatment
Excerpt: HCC70, BT-549, and SUM159 human TNBC cell lines and MCF10A human breast epithelial cell line were purchased from American Type Culture Collection. The murine 4T1-Luc TNBC cells were purchased from PerkinElmer. HCC70, BT-549, and 4T1-Luc cells were maintained in RPMI 1640 medium (Life Technologies Inc., Grand Island, N.Y., USA) and MDA-MB-231-LM2 cells in Dulbecco's modified Eagle's medium/F12 medium (Life Technologies Inc., Grand Island, N.Y., USA), both types of medium supplemented with FBS (10%) and antibiotic/antimycotic (1%). SUM159 cells were maintained in Ham's F-12 medium (Life Technologies Inc., Grand Island, N.Y., USA) supplemented with FBS (5%), antibiotic/antimycotic (1%), insulin (5 μg/mL), and hydrocortisone (1 μg/mL). MCF10A cells were maintained in Dulbecco's modified Eagle's medium/F12 medium supplemented with horse serum (10%), antibiotic/antimycotic (1%), insulin (10 μg/mL), EGF (20 ng/mL), cholera toxin (100 ng/mL), and hydrocortisone (500 μg/mL). All cell lines used in this study were validated by the Characterized Cell Line Core Facility at MD Anderson Cancer Center by using a short tandem repeat method based on primer extension to detect single base deviations.
Cell proliferation was determined using the CellTiter-Blue viability assay as described previously (Gloeckner H, et al. Journal of immunological methods. 2001; 252(1-2):131-138). Cells were seeded in 96-well plates and treated the next day with MELK inhibitors (0-20 μM). At 72 h after MELK inhibitor treatment, optical density at 595 nm was determined.

NUAK1 = NUAK1 (Homo sapiens (Human), UniProt O60285); experiment: Selectivity dose-response kinase assay, NUAK1; assay type: biochemical; conditions: 100 μM ATP
Excerpt: as §1

CHK1 = CHK1 (Homo sapiens (Human), UniProt O14757); experiment: Selectivity dose-response kinase assay, CHK1; assay type: biochemical; conditions: 100 μM ATP
Excerpt: as §1

ERK2 = ERK2 (Rattus norvegicus (Rat), UniProt P63086); experiment: Selectivity dose-response kinase assay, ERK2; assay type: biochemical; conditions: 100 μM ATP
Excerpt: as §1

CAMKK2 = CAMKK2 (Homo sapiens (Human), UniProt Q96RR4); experiment: Selectivity dose-response kinase assay, CAMKK2; assay type: biochemical; conditions: 100 μM ATP
Excerpt: as §1

BT-549 cells = experiment: Cell proliferation, CellTiter-Blue viability assay, BT-549; assay type: cell-based, human; conditions: 72 h after treatment
Excerpt: as §2, §3

SUM-159 cells = experiment: Cell proliferation, CellTiter-Blue viability assay, SUM-159; assay type: cell-based, human; conditions: 72 h after treatment
Excerpt: as §2, §3

MELK = MELK (Homo sapiens (Human), UniProt Q14680); experiment: MELK p81-based kinase assay, dose-response (IC50/Ki); assay type: biochemical
Experimental: MELK and its substrate, Bcl-G were both recombinantly expressed and purified for use in screening assays (See Methods). […] 10 nM MELK 340 and 10 μM Bcl-GL in kinase assay buffer (50 mM HEPES pH 7.5, 100 mM KCl, 0.1 mM EDTA, 0.1 mM EGTA, 10 mM MgCl2, 10 μg/mL BSA) with 10 mM DTT were added to either 10 μM or 1 μM inhibitor aliquoted into 96 well plates (final 1% DMSO). The mixture was incubated at room temperature for 30 minutes prior to initiation of the assay with 40 μM γ-^32P-ATP (100-1000 CPM/pmol). 40 μL aliquots were spotted onto a p81 96 well filter plate (Unifilter, Whatman), quenched, and washed with 75 mM O-phosphoric acid 8 times, followed by a final wash with acetone for drying. Wells were then filled with scintillation fluid, sealed, and quantified using a MicroBeta TriLux liquid scintillation counter (PerkinElmer). Each inhibitor plate was assayed in duplicate, with at least 4 wells without MELK to establish background and at least 4 wells without inhibitor as a negative control. All readings were corrected for background signal based on the average counts from the wells without enzyme. Percent inhibition, defined as [100−(CPM+inhibitor/average CPM of positive controls)*100], was determined first at 10 μM inhibitor. The top 50 inhibitors were then re-screened in duplicate at 1 μM.
At set time points (0.25, 0.5, 1, 1.5, and 2 min for assays containing 10 nM MELK and 1, 2, 4, 6, and 10 min for assays containing 1 nM MELK), 30 μL aliquots were taken from each reaction and spotted onto 2×2 cm squares of p81 paper. Papers were washed 4 times in 75 mM O-phosphoric acid and once in acetone. Labeled protein was quantified by its associated CPM determined on a Packard 1500 scintillation counter at a sigma value of 2. CPM were translated into nmol ^32P incorporated using Equation 1.
Rates in the presence of each concentration of inhibitor were determined by plotting nmol ^32P incorporated vs. time. These rates were normalized to rates obtained without inhibitor, and data were plotted in terms of fractional activity. In most cases, data were fit to Equation 2. If the IC50 approached the amount of enzyme used in the assay, data were re-fit to the equation for tight-binding inhibitors (the Morrison equation, […]). […] Data were transformed as discussed and fit to Equation 3.
IC50 values were used to estimate each inhibitor's Ki using the Cheng-Prusoff relationship for competitive inhibitors (Equation 4).

Sequence of MELK (Q14680 1-340): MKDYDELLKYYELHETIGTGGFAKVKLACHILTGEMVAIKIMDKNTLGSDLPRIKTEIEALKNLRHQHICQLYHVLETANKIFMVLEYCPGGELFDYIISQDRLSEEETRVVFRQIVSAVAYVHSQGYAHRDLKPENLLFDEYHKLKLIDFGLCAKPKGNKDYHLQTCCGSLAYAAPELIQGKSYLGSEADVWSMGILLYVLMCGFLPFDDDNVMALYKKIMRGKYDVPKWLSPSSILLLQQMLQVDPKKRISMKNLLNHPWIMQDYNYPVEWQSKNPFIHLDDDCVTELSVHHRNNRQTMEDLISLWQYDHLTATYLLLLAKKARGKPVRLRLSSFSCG
Sequence of CAMKK2 (Q96RR4 whole entry, species assumed): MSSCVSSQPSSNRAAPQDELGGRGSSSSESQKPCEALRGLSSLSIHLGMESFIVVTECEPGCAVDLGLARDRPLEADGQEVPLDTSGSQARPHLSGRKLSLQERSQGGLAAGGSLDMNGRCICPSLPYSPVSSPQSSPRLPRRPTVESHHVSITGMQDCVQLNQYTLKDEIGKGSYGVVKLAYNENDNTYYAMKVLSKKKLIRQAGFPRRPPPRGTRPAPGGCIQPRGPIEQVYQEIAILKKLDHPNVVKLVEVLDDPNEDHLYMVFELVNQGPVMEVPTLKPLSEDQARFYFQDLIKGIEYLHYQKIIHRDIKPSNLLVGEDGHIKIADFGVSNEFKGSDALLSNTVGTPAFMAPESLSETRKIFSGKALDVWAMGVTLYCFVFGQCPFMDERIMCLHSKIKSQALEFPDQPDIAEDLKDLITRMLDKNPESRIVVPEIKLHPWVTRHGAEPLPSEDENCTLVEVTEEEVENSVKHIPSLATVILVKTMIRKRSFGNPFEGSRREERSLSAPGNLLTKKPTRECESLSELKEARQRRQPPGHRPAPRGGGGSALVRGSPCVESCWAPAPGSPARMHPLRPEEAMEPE
Sequence of CHK1 (O14757 whole entry): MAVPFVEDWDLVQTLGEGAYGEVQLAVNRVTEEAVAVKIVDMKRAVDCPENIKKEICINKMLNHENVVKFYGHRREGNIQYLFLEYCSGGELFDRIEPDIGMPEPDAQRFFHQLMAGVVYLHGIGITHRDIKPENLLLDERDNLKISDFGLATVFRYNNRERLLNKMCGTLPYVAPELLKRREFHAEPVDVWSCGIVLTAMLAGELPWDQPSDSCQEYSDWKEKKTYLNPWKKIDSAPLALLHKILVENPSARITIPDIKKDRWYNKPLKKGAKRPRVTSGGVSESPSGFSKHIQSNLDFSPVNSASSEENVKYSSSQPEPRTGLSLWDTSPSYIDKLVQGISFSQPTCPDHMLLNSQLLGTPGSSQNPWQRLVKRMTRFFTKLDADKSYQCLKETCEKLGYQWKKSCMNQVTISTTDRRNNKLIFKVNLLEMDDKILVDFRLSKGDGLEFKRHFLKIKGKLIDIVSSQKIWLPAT
Sequence of NUAK1 (O60285 whole entry): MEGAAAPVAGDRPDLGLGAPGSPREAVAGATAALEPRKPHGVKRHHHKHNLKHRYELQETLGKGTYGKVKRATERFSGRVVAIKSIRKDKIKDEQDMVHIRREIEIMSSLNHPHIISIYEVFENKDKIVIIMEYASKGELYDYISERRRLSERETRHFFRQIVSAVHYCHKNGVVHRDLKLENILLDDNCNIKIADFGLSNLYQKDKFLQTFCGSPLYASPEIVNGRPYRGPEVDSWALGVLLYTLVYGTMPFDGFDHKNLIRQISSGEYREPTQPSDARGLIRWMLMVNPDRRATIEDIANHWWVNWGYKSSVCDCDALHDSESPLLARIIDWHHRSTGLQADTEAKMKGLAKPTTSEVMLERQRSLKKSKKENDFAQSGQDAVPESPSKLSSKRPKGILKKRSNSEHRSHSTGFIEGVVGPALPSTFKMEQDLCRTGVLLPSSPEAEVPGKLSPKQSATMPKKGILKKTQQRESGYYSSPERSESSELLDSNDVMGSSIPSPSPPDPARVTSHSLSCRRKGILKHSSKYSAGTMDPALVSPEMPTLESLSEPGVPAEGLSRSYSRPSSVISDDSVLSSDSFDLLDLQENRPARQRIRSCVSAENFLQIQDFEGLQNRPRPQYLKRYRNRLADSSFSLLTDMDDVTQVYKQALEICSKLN
Sequence of AMPK (P54645 whole entry, looked up): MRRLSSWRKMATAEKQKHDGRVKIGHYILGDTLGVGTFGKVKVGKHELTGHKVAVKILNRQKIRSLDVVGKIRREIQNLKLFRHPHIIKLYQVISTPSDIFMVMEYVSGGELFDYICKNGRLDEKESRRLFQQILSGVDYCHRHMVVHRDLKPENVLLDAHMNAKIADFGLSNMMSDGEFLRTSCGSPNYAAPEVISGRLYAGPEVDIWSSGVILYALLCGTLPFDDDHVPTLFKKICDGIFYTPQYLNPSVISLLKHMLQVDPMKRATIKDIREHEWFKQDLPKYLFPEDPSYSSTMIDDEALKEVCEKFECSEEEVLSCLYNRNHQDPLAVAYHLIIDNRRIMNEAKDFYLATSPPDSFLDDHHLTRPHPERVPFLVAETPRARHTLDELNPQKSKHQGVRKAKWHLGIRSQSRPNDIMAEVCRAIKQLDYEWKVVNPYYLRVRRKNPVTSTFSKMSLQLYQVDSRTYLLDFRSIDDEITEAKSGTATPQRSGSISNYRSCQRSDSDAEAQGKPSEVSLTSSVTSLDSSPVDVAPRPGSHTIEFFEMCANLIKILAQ
Sequence of AMPK (P80386 whole entry partner, looked up): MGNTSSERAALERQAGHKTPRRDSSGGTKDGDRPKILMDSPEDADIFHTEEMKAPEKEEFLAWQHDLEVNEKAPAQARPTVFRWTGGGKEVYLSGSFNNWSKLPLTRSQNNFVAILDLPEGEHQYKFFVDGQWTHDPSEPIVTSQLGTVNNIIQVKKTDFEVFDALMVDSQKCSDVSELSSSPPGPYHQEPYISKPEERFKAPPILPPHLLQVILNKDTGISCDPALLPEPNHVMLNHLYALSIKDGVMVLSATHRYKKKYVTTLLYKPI
Sequence of AMPK (P80385 whole entry partner, looked up): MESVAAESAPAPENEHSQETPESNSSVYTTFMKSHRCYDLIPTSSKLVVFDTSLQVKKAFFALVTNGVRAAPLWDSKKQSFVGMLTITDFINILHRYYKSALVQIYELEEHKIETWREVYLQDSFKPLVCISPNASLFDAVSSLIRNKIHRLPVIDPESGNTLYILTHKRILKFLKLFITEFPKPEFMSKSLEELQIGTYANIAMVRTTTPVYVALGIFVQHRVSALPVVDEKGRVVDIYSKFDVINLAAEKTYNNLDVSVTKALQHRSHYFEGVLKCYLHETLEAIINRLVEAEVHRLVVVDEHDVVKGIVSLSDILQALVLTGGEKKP
Sequence of ERK2 (P63086 whole entry): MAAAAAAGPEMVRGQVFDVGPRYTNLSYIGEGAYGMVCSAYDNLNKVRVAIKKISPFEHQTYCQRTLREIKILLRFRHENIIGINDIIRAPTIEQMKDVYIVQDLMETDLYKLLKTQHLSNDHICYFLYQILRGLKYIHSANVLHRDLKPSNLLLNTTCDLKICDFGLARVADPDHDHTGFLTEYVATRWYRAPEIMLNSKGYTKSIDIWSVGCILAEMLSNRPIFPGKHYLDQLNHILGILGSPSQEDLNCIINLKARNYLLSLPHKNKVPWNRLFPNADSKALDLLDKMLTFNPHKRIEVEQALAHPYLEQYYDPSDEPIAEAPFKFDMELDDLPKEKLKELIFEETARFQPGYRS

SMILES | Ki (AMPK) [nM] | proliferation of HCC70 cells (HCC70 cells) | proliferation of MCF10A cells (MCF10A cells) | proliferation of MCF10A cells (MCF10A cells; at 10 μM) | Ki (NUAK1) [nM] | Ki (CHK1) [nM] | Ki (ERK2) [nM] | Ki (CAMKK2) [nM] | proliferation of BT-549 cells (BT-549 cells) | proliferation of SUM-159 cells (SUM-159 cells) | Ki (MELK; Ki calculated using Equation 4, [ATP] = 40 μM, KM app (ATP) = 6 μM, read-out: Ki ± SE) | IC50 (MELK; indolinone derivatives, 40 μM ATP, read-out: IC50) [nM]
COC(=O)c1ccc2c(c1)/C(=C(/Nc1ccc(N(C)C(=O)CN3CCN(C)CC3)cc1)c1ccccc1)C(=O)N2 [Compound 17, Methyl(Z)-3-(((4-(N-methyl-2-(4-methylpiperazin-1-yl)acetamido)phenyl)amino)(phenyl)methylene)-2-oxoindoline-5-carboxylate] | 9.2 ± 1.7 | clearly impacted | little effect | remained largely unaffected | 11 ± 0.86 | 7 ± 0.17 | 3000 ± 1300 | 31 ± 11 | clearly impacted | clearly impacted |  | 
CN1CCN(CC(=O)N(C)c2ccc(N/C(=C3\C(=O)Nc4ccc(F)cc43)c3ccccc3)cc2)CC1 [Compound 19, (Z)—N-(4-(((5-Fluoro-2-oxoindolin-3-ylidene)(phenyl)methyl)amino)phenyl)-N-methyl-2-(4-methylpiperazin-1-yl)acetamide] |  | inhibited all cell lines | inhibited all cell lines |  |  |  |  |  | inhibited all cell lines | inhibited all cell lines | 3.1 nM and 0.68 nM | 24 ± 4.7
